The test system of data set [1] is HeLa (human cervix carcinoma). Put plainly: Cytotoxicity on HeLa cells, quantitative suspension test according to EN 14476. The class given is cell-based. Conditions: observed 4 days, aqua media. The protocol:
Normal human dermal fibroblasts (NHDF) (PromoCell, C-12302) were used as normal cells and LoVo (human colorectal adenocarcinoma, ATCC® CCL-229™), A549 (human lung carcinoma, ATCC, No. CCL-185 TM), MCF-7 (human breast adenocarcinoma, ATCC, No. HTB-22^TM) and HeLa (human cervix carcinoma, ATCC, No. CCL-2 TM) were used as cancer cells. They were cultured in DMEM, DMEM–F12 or EMEM (Lonza, CA, USA). Media were supplemented with 10% FBS (Biological Industries, Kibbutz Beit-Haemek, Israel), 2 mM L-glutamine (Biological Industries, Israel), 100 U/mL of penicillin and 100 µg/mL of streptomycin (Sigma, Neustadt an der Weinstrasse, Germany).
The 100 μL of suspension of NHDF, A549, HeLa, LoVo, and MCF7 cells at a density of 4 × 10^4 cells mL^−1 were incubated in a 96-well polystyrene plate (NUNC, Denmark) for 24 h. Product test solutions were prepared in DMEM, DMEM–F12, or EMEM supplemented with additional 2% FBS and 2 mM L-glutamine. Solutions of the reagents at concentrations from 460 (for 1), 454 (2), […] (3), 1242 (Cu(NO3)2), 1732 (PTA=O), and 1440 µM (dmphen) to 4.60 × 10^−6, 4.54 × 10^−6, 4.69 × 10^−6, 1.24 × 10^−5, 1.73 × 10^−5, and 1.44 × 10^−5 µM, respectively, were prepared and transferred (100 μL) into cell culture units (wells of microtiter plates) containing monolayer of cells. Eight units were inoculated with each dilution. Plates were incubated in 37 °C, 5% CO2 and observed daily for 4 days for the development of cytotoxic effect, using an inverted microscope (Olympus Corp., Hamburg, Germany, Axio Observer, Carl Zeiss MicroImaging GmbH). Then the wells were washed in phosphate buffered saline (PBS) and stained using DAPI (4′,6-diamidino-2-phenylindole) and propidium iodide (Merck, Darmstadt, Germany). The study used the fact that DAPI is able to be combined with cellular DNA, permeate through the membrane of cell, rapidly enter the nucleus of living cells and bind with DNA to form a DAPI-DNA complex. […] In cell culture these are cells that are apoptotic or damaged by any physical or chemical agent. Therefore, if these two fluorochrome are given at the same time, DAPI will get to healthy cells faster, while propidium iodide will stain dead or dying cells. The calculation of the ratio of cells counted on a specific area, allows to determine the potency of a substance in inhibiting a specific biological function (IC50).

Data set [2] can be described thus: Octanol-water partition coefficient (log P), UV-Vis. In kind it is physicochemical. The settings on record: room temperature, 10^−5 M. The protocol:
The log P values consistent to the octanol-water partition coefficient were adjusted to the solubility properties of the compounds [94]. Complexes 1–3 were dissolved in water, previously saturated with octanol with concentrations 10^−5 M. Into a 25-mL flask at room temperature with a magnetic stir bar was introduced initially 5 mL of octanol previously saturated with water and then 5 mL of the complex solutions in water. A two-phase mixture was stirred vigorously for 15 min and samples, which were measured by UV-Vis spectroscopy, were taken from the separated phases.

The target in data set [3] is T1, human apo-transferrin (apo-Tf) (Homo sapiens, UniProt P02787).
T1 construct: purchased Sigma-Aldrich
T1 sequence (P02787 20-698): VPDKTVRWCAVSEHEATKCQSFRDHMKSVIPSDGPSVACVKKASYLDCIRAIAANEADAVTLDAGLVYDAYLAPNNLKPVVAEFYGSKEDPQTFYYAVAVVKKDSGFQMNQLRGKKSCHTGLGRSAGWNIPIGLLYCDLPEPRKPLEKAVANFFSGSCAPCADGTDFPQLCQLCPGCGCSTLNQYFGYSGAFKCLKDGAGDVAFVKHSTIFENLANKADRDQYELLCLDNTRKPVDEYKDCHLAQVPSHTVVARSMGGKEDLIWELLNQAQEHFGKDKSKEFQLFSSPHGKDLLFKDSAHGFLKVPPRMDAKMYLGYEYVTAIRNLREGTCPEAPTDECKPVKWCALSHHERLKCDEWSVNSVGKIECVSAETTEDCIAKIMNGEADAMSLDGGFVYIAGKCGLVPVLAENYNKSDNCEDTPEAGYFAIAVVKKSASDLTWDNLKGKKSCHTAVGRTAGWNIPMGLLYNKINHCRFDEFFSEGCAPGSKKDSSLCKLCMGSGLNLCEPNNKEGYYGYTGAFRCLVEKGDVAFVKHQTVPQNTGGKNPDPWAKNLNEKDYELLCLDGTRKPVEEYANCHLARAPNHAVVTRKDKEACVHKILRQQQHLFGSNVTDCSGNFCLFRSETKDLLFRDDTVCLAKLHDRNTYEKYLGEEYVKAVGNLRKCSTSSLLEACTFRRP
Put plainly: Circular dichroism of apo-transferrin, alpha-helix content. In kind it is binding. The settings on record: free protein 19.80%. The method, then:
Circular dichroism (CD) measurements in the far UV region were performed to determine the effect of copper complexes on the apo-transferrin secondary structure. A characteristic for α-helical structure of protein negative bands was visible in the CD spectrum at wavelengths of 210 and 220 nm (Figure 7) and were assigned n-π* transitions peptide bonds. […] The α-helix content the free protein was equal to 19.80%.
High purity apo-transferrin (≥ 98%, Sigma-Aldrich, Steinheim, North Rhine-Westphalia, Germany) was used without prior purification. The stock solutions of the complexes were prepared in demineralized water (1 and 2) or ethanol (3). The apo-Tf was dissolved in PBS (pH 7.40). […] Samples were incubated at 300 and 310 K for 5 min. The apo-Tf concentration was determined using ε (280 nm) = 11.2 mM^−1 × cm^−1.
Circular dichroism measurements were carried out on a Jasco J-715 spectropolarimeter (Tokyo, Japan) in the range of 190–250 nm using 0.1-cm cuvettes. The α-helical content of the protein was calculated from the Equations (9) and (10):(9) MRE209= ObservedCDmdeg/Cp· n· l ·10 (10) α−helix %= −MRE209−4000/33000−4000×100 where MRE is the mean residue ellipticity, Cp is the molar concentration of the protein, n the number of amino acid residues (679), and l is the path length (0.1 cm).
On the technique in general: CD spectra are sensitive to the conformation of chiral molecules.

[4] abbreviates: molar ratio apo-Tf:complex 1:20.

Three compounds from paper PMC7037393, “Synthesis, Structural, and Cytotoxic Properties of New Water-Soluble Copper(II) Complexes Based on 2,9-Dimethyl-1,10-Phenanthroline and Their One Derivative Containing 1,3,5-Triaza-7-Phosphaadamantane-7-Oxide” (Molecules, 2020) can be followed below.

Compound `CC#N.Cc1ccc2ccc3ccc(C)nc3c2n1.O=[N+]([O-])[O-].O=[N+]([O-])[O-].[Cu+2]` [Complex 3, [Cu(NO3)2(dmphen)]∙MeCN] came in with an IC50 in data set [1] of 0.43 ± 0.06 µM. Besides, the “log P (octanol-water partition coefficient)” value (shortened to “log P”) in data set [2] is given as 1.11. The “α-helix content of apo-Tf upon binding” value stood at 17.05% in data set [3] (molar ratio apo-Tf:complex 1:10) and 8.16% in data set [3] (setting [4]).

Turning to `Cc1ccc2ccc3ccc(C)nc3c2n1.F[P-](F)(F)(F)(F)F.O=P12CN3CN(CN(C3)C1)C2.O=[N+]([O-])[O-].[Cu+2]` [Complex 1, [Cu(NO3)(PTA=O)(dmphen)][PF6]], the IC50 in data set [1] came out at 1.12 ± 0.16 µM. The “log P” value in data set [2] is recorded as 0.90. Also, the “α-helix content of apo-Tf upon binding” value in data set [3] (setting [4]) is 19.07%.

In turn, `Cc1ccc2ccc3ccc(C)nc3c2n1.Cc1ccc2ccc3ccc(C)nc3c2n1.F[P-](F)(F)(F)(F)F.[Cl-].[Cu+2]` [Complex 2, [Cu(Cl)(dmphen)2][PF6]] came in with an IC50 in data set [1] of 1.13 ± 0.17 µM. Besides, the “log P” value in data set [2] came to 1.75. Further, in data set [3] (setting [4]), the “α-helix content of apo-Tf upon binding” value is recorded as 18.00%.

As usually defined, the IC50 is the concentration that gives 50% inhibition. Low values mean higher potency, high ones lower potency.
